*1 amine or outer side, *2 acyl side, *3 side chain or, on linkers, in order; H or OH if unused. Where a SMILES comes first, the peptide text is derived from it. Side-chain parts run from the residue outwards. [ ]: non-standard residue; d: D form. The star is where a group is joined. C20 diacid = O=C(O)CCCCCCCCCCCCCCCCCCC(=O)*; C18 diacid = O=C(O)CCCCCCCCCCCCCCCCC(=O)*; αMePhe(2-F) = C[C@](N)(Cc1ccccc1F)C(=O)O; γGlu = O=C(O)[C@H](CCC(=O)[*:2])N[*:1]; 4Pal = N[C@@H](Cc1ccncc1)C(=O)O; αMeL = CC(C)C[C@](C)(N)C(=O)O; Iva = CC[C@](C)(N)C(=O)O; Orn = NCCC[C@H](N)C(=O)O; AEEA = NCCOCCOCC(=O)O; Aib = CC(C)(N)C(=O)O
Legend:
[1] = target: T1, human glucagon receptor (GcgR) (Homo sapiens, UniProt P47871); test: cAMP functional assay (HTRF) in HEK293 cells in presence of 0.1% casein; format: cell-based; conditions: HEK293 cells expressing human GcgR, geometric mean, read-out: hGcgR cAMP Rel EC50 nM (SEM, n)
T1 construct: expressed in transfected cells; host or cells: HEK293

[2] = target: T2, human GLP-1 receptor (GLP-1R) (Homo sapiens, UniProt P43220); test: as above; format: cell-based; conditions: HEK293 cells expressing human GLP-1R, geometric mean, read-out: hGLP1R cAMP Rel EC50 nM (SEM, n)
T2 construct: expressed in transfected cells; host or cells: HEK293

[3] = target: T3, human GcgR (Homo sapiens, UniProt P47871); test: [125I]-Glucagon binding, SPA with WGA beads, 0.1% bacitracin; conditions: geometric mean, read-out: hGcgR Ki
T3 construct: expressed in transfected cells; crude membranes
Method in brief: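 SPA competition binding with WGA beads on crude membranes from HEK293 cells stably expressing hGcgR. Buffer: 25 mM HEPES pH 7.4, 2.5 mM CaCl2, 1 mM MgCl2, 0.1% bacitracin, 0.003% Tween-20; 10-point 3-fold dilutions, NSB with 1 μM Gcg.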

T3 sequence (P47871 26-477): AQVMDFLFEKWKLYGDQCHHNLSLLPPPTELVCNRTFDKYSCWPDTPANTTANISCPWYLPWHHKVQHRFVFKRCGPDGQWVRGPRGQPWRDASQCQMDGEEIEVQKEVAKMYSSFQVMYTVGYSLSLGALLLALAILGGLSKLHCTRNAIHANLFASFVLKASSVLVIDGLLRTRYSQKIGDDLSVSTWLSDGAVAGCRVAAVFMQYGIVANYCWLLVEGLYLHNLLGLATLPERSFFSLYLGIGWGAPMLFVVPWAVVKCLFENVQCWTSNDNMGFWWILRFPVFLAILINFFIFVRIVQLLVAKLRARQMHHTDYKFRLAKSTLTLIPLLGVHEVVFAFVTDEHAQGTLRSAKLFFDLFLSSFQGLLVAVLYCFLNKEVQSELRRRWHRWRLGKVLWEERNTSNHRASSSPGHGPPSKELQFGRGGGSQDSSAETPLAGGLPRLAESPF
T1 sequence (P47871 26-477): as above
T2 sequence (P43220 24-463): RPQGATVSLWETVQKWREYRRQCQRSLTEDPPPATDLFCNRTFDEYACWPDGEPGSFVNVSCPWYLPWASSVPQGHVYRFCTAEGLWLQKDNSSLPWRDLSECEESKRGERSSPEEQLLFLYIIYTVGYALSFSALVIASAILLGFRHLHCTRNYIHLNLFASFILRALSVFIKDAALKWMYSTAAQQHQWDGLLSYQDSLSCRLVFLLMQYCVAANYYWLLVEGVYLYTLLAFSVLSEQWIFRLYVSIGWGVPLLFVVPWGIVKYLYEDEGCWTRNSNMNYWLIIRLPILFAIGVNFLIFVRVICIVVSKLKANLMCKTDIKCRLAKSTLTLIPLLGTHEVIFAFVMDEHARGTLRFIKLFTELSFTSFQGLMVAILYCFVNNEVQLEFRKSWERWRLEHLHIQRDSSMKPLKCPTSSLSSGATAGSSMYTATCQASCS

SMILES	EC50 [1] [nM]	EC50 [2] [nM]	Ki [3] [nM]
CC[C@H](C)[C@H](NC(=O)[C@H](CCCN)NC(=O)[C@H](CC(=O)O)NC(=O)[C@H](CC(C)C)NC(=O)[C@](C)(CC(C)C)NC(=O)[C@@H](NC(=O)[C@H](CO)NC(=O)[C@H](Cc1ccc(O)cc1)NC(=O)[C@H](CC(=O)O)NC(=O)[C@H](CO)NC(=O)[C@@H](NC(=O)[C@H](Cc1ccccc1)NC(=O)[C@@H](NC(=O)CNC(=O)[C@H](CCC(=O)O)NC(=O)C(C)(C)NC(=O)[C@@H](N)Cc1ccc(O)cc1)[C@@H](C)O)[C@@H](C)CC)[C@@H](C)CC)C(=O)N[C@@H](Cc1c[nH]cn1)C(=O)N[C@@H](CCC(N)=O)C(=O)NC(C)(C)C(=O)N[C@@H](CC(=O)O)C(=O)N[C@@H](Cc1ccccc1)C(=O)N[C@H](C(=O)N[C@@H](CCC(=O)O)C(=O)N[C@@H](Cc1ccc(O)cc1)C(=O)N[C@@H](CCCCNC(=O)COCCOCCNC(=O)COCCOCCNC(=O)CC[C@H](NC(=O)CCCCCCCCCCCCCCCCCCC(=O)O)C(=O)O)C(=O)N[C@@H](CC(C)C)C(=O)N[C@@H](CCC(=O)O)C(=O)NCC(=O)NCC(=O)N1CCC[C@H]1C(=O)N[C@@H](CO)C(=O)N[C@@H](CO)C(=O)NCC(=O)N[C@@H](C)C(=O)N1CCC[C@H]1C(=O)N1CCC[C@H]1C(=O)N1CCC[C@H]1C(=O)N[C@@H](CO)C(N)=O)C(C)C [Example 6]	> 5000	> 5000	453
CC[C@H](C)[C@H](NC(=O)[C@H](Cc1ccccc1)NC(=O)[C@@H](NC(=O)CNC(=O)[C@H](CCC(=O)O)NC(=O)C(C)(C)NC(=O)[C@@H](N)Cc1ccc(O)cc1)[C@@H](C)O)C(=O)N[C@@H](CO)C(=O)N[C@@H](CC(=O)O)C(=O)N[C@@H](Cc1ccc(O)cc1)C(=O)N[C@@H](CO)C(=O)N[C@H](C(=O)N[C@@](C)(CC(C)C)C(=O)N[C@@H](CC(C)C)C(=O)N[C@@H](CC(=O)O)C(=O)N[C@@H](CCC(=O)O)C(=O)N[C@@H](CCCCNC(=O)COCCOCCNC(=O)COCCOCCNC(=O)CC[C@H](NC(=O)CCCCCCCCCCCCCCCCCCC(=O)O)C(=O)O)C(=O)N[C@@H](Cc1c[nH]cn1)C(=O)N[C@@H](CCC(N)=O)C(=O)NC(C)(C)C(=O)N[C@@H](CC(=O)O)C(=O)N[C@@H](Cc1ccccc1)C(=O)N[C@H](C(=O)N[C@@H](CCC(=O)O)C(=O)N[C@@H](Cc1ccncc1)C(=O)N[C@@H](CC(C)C)C(=O)N[C@@H](CC(C)C)C(=O)N[C@@H](C)C(=O)NCC(=O)NCC(=O)N1CCC[C@H]1C(=O)N[C@@H](CO)C(=O)N[C@@H](CO)C(=O)NCC(=O)N[C@@H](C)C(=O)N1CCC[C@H]1C(=O)N1CCC[C@H]1C(=O)N1CCC[C@H]1C(=O)N[C@@H](CO)C(N)=O)C(C)C)[C@@H](C)CC [Example 86]	> 5000	> 5000	462
CC[C@H](C)[C@H](NC(=O)[C@H](CO)NC(=O)[C@H](Cc1ccc(O)cc1)NC(=O)[C@H](CC(=O)O)NC(=O)[C@H](CO)NC(=O)[C@@H](NC(=O)[C@](C)(CC)NC(=O)[C@@H](NC(=O)CNC(=O)[C@H](CCC(=O)O)NC(=O)C(C)(C)NC(=O)[C@@H](N)Cc1ccc(O)cc1)[C@@H](C)O)[C@@H](C)CC)C(=O)N[C@@](C)(CC(C)C)C(=O)N[C@@H](CC(C)C)C(=O)N[C@@H](CC(=O)O)C(=O)N[C@@H](CCCN)C(=O)N[C@@H](CCCCNC(=O)COCCOCCNC(=O)COCCOCCNC(=O)CC[C@H](NC(=O)CCCCCCCCCCCCCCCCCCC(=O)O)C(=O)O)C(=O)N[C@@H](Cc1c[nH]cn1)C(=O)N[C@@H](CCC(N)=O)C(=O)NC(C)(C)C(=O)N[C@@H](CC(=O)O)C(=O)N[C@@H](Cc1ccccc1)C(=O)N[C@H](C(=O)N[C@@H](CCC(=O)O)C(=O)N[C@@H](Cc1ccncc1)C(=O)N[C@@H](CC(C)C)C(=O)N[C@@H](CC(C)C)C(=O)N[C@@H](CCC(=O)O)C(=O)N[C@H](C(=O)NCC(=O)N1CCC[C@H]1C(=O)N[C@@H](CO)C(=O)N[C@@H](CO)C(=O)NCC(=O)N[C@@H](C)C(=O)N1CCC[C@H]1C(=O)N1CCC[C@H]1C(=O)N1CCC[C@H]1C(=O)N[C@@H](CO)C(N)=O)[C@@H](C)O)C(C)C [Example 77] (H-Y[Aib]EGT[Iva]ISDYSI[αMeL]LD[Orn]K([AEEA-AEEA-γGlu-C20 diacid])HQ[Aib]DFVE[4Pal]LLETGPSSGAPPPS-NH2)	2660	> 5000	> 958
CC[C@H](C)[C@H](NC(=O)[C@H](CO)NC(=O)[C@H](Cc1ccc(O)cc1)NC(=O)[C@H](CC(=O)O)NC(=O)[C@H](CO)NC(=O)[C@@H](NC(=O)[C@](C)(Cc1ccccc1F)NC(=O)[C@@H](NC(=O)CNC(=O)[C@H](CCC(=O)O)NC(=O)C(C)(C)NC(=O)[C@@H](N)Cc1ccc(O)cc1)[C@@H](C)O)[C@@H](C)CC)C(=O)N[C@@H](C)C(=O)N[C@@H](CC(C)C)C(=O)N[C@@H](CC(=O)O)C(=O)N[C@@H](CCCCN)C(=O)N[C@H](C(=O)N[C@@H](Cc1c[nH]cn1)C(=O)N[C@@H](CCC(N)=O)C(=O)NC(C)(C)C(=O)N[C@@H](CCC(=O)O)C(=O)N[C@@H](Cc1ccccc1)C(=O)N[C@H](C(=O)N[C@@H](CC(N)=O)C(=O)N[C@@H](Cc1ccc(O)cc1)C(=O)N[C@@H](CCCCNC(=O)COCCOCCNC(=O)COCCOCCNC(=O)CC[C@H](NC(=O)CCCCCCCCCCCCCCCCC(=O)O)C(=O)O)C(=O)N[C@@H](CC(C)C)C(=O)N[C@@H](C)C(=O)NCC(=O)NCC(=O)N1CCC[C@H]1C(=O)N[C@@H](CO)C(=O)N[C@@H](CO)C(=O)NCC(=O)N[C@@H](C)C(=O)N1CCC[C@H]1C(=O)N1CCC[C@H]1C(=O)N1CCC[C@H]1C(=O)N[C@@H](CO)C(N)=O)C(C)C)[C@@H](C)CC [Example 94] (H-Y[Aib]EGT[αMePhe(2-F)]ISDYSIALDKIHQ[Aib]EFVNYK([AEEA-AEEA-γGlu-C18 diacid])LAGGPSSGAPPPS-NH2)	> 5000	1090	114
CC[C@H](C)[C@H](NC(=O)[C@H](CCCCN)NC(=O)[C@H](CC(=O)O)NC(=O)[C@H](CC(C)C)NC(=O)[C@](C)(CC(C)C)NC(=O)[C@@H](NC(=O)[C@H](CO)NC(=O)[C@H](Cc1ccc(O)cc1)NC(=O)[C@H](CC(=O)O)NC(=O)[C@H](CO)NC(=O)[C@@H](NC(=O)[C@H](Cc1ccccc1)NC(=O)[C@@H](NC(=O)CNC(=O)[C@H](CCC(=O)O)NC(=O)C(C)(C)NC(=O)[C@@H](N)Cc1ccc(O)cc1)[C@@H](C)O)[C@@H](C)CC)[C@@H](C)CC)C(=O)N[C@@H](Cc1c[nH]cn1)C(=O)N[C@@H](CCC(N)=O)C(=O)NC(C)(C)C(=O)N[C@@H](CC(=O)O)C(=O)N[C@@H](Cc1ccccc1)C(=O)N[C@H](C(=O)N[C@@H](CCC(=O)O)C(=O)N[C@@H](Cc1ccc(O)cc1)C(=O)N[C@@H](CCCCNC(=O)COCCOCCNC(=O)COCCOCCNC(=O)CC[C@H](NC(=O)CCCCCCCCCCCCCCCCCCC(=O)O)C(=O)O)C(=O)N[C@@H](CC(C)C)C(=O)N[C@@H](CCC(=O)O)C(=O)N[C@@H](CCC(N)=O)C(=O)NCC(=O)N1CCC[C@H]1C(=O)N[C@@H](CO)C(=O)N[C@@H](CO)C(=O)NCC(=O)N[C@@H](C)C(=O)N1CCC[C@H]1C(=O)N1CCC[C@H]1C(=O)N1CCC[C@H]1C(=O)N[C@@H](CO)C(N)=O)C(C)C [Example 92] (H-Y[Aib]EGTFISDYSI[αMeL]LDKIHQ[Aib]DFVEYK([AEEA-AEEA-γGlu-C20 diacid])LEQGPSSGAPPPS-NH2)	> 5000	> 5000	> 958
CC[C@H](C)[C@H](NC(=O)[C@H](CCCCN)NC(=O)[C@H](CC(=O)O)NC(=O)[C@H](CC(C)C)NC(=O)[C@](C)(CC(C)C)NC(=O)[C@@H](NC(=O)[C@H](CO)NC(=O)[C@H](Cc1ccc(O)cc1)NC(=O)[C@H](CC(=O)O)NC(=O)[C@H](CO)NC(=O)[C@@H](NC(=O)[C@H](Cc1ccccc1)NC(=O)[C@@H](NC(=O)CNC(=O)[C@H](CCC(=O)O)NC(=O)C(C)(C)NC(=O)[C@@H](N)Cc1ccc(O)cc1)[C@@H](C)O)[C@@H](C)CC)[C@@H](C)CC)C(=O)N[C@@H](Cc1c[nH]cn1)C(=O)N[C@@H](CCC(N)=O)C(=O)NC(C)(C)C(=O)N[C@@H](CC(=O)O)C(=O)N[C@@H](Cc1ccccc1)C(=O)N[C@H](C(=O)N[C@@H](CCC(=O)O)C(=O)N[C@@H](Cc1ccc(O)cc1)C(=O)N[C@@H](CCCCNC(=O)COCCOCCNC(=O)COCCOCCNC(=O)CC[C@H](NC(=O)CCCCCCCCCCCCCCCCCCC(=O)O)C(=O)O)C(=O)N[C@@H](CC(C)C)C(=O)N[C@@H](CCC(=O)O)C(=O)NCC(=O)NCC(=O)N1CCC[C@H]1C(=O)N[C@@H](CO)C(=O)N[C@@H](CO)C(=O)NCC(=O)N[C@@H](C)C(=O)N1CCC[C@H]1C(=O)N1CCC[C@H]1C(=O)N1CCC[C@H]1C(=O)N[C@@H](CO)C(N)=O)C(C)C [Example 5]	> 5000	> 5000	619
CC[C@H](C)[C@H](NC(=O)[C@H](CO)NC(=O)[C@H](Cc1ccc(O)cc1)NC(=O)[C@H](CC(=O)O)NC(=O)[C@H](CO)NC(=O)[C@@H](NC(=O)[C@](C)(Cc1ccccc1F)NC(=O)[C@@H](NC(=O)CNC(=O)[C@H](CCC(=O)O)NC(=O)C(C)(C)NC(=O)[C@@H](N)Cc1ccc(O)cc1)[C@@H](C)O)[C@@H](C)CC)C(=O)N[C@@H](CC(C)C)C(=O)N[C@@H](CC(C)C)C(=O)N[C@@H](CC(=O)O)C(=O)N[C@@H](CCCCN)C(=O)N[C@H](C(=O)N[C@@H](Cc1c[nH]cn1)C(=O)N[C@@H](CCC(N)=O)C(=O)NC(C)(C)C(=O)N[C@@H](CC(=O)O)C(=O)N[C@@H](Cc1ccccc1)C(=O)N[C@H](C(=O)N[C@@H](CCC(=O)O)C(=O)N[C@@H](Cc1ccncc1)C(=O)N[C@@H](CCCCNC(=O)COCCOCCNC(=O)COCCOCCNC(=O)CC[C@H](NC(=O)CCCCCCCCCCCCCCCCCCC(=O)O)C(=O)O)C(=O)N[C@@H](CC(C)C)C(=O)N[C@@H](CCC(=O)O)C(=O)N[C@@H](CCC(N)=O)C(=O)NCC(=O)N1CCC[C@H]1C(=O)N[C@@H](CO)C(=O)N[C@@H](CO)C(=O)NCC(=O)N[C@@H](C)C(=O)N1CCC[C@H]1C(=O)N1CCC[C@H]1C(=O)N1CCC[C@H]1C(=O)N[C@@H](CO)C(N)=O)C(C)C)[C@@H](C)CC [Example 121] (H-Y[Aib]EGT[αMePhe(2-F)]ISDYSILLDKIHQ[Aib]DFVE[4Pal]K([AEEA-AEEA-γGlu-C20 diacid])LEQGPSSGAPPPS-NH2)	> 5000	> 5000	94.9
